Measurements from patent publication US20240158446A1, “CYCLIC COMPOUND HAVING SELECTIVE INHIBITORY ACTION ON KRAS OVER HRAS AND NRAS” (CHUGAI SEIYAKU KABUSHIKI KAISHA, priority 2021, published 2024).
Where two headings read alike, the source gives them in different places. Where a SMILES comes first, the peptide text is derived from it. Bridges are numbered along the chain shown (N, C = ends). [ ]: non-standard residue; d: D form. hPhe(3-Cl-4-CF3) = N[C@@H](CCc1ccc(C(F)(F)F)c(Cl)c1)C(=O)O; NPrPhe(4-CF3) = CCCN[C@@H](Cc1ccc(C(F)(F)F)cc1)C(=O)O; NMeGly(cPent) = CN[C@H](C(=O)O)C1CCCC1; NMeD = CN[C@@H](CC(=O)O)C(=O)O; NMeL = CN[C@@H](CC(C)C)C(=O)O; Ac5c = NC1(C(=O)O)CCCC1; NEtG = CCNCC(=O)O; Sar = CNCC(=O)O

Experiments:
[1] = biological target: GDP-bound NRAS wild-type protein (Homo sapiens, UniProt P01111); test: Binding to NRAS by surface plasmon resonance (SPR), Single Cycle Kinetics; conditions: for NRAS/KRAS (ratio of KD value with respect to GDP-bound NRAS wild-type protein to KD value with respect to KRAS): SPR KD ratio NRAS/KRAS, class symbols
[2] = biological target: GDP-bound HRAS wild-type protein (Homo sapiens, UniProt P01112); test: Binding to HRAS by surface plasmon resonance (SPR), Single Cycle Kinetics; conditions: for HRAS/KRAS (ratio of KD value with respect to GDP-bound HRAS wild-type protein to KD value with respect to KRAS): SPR KD ratio HRAS/KRAS, class symbols
[3] = test system: human lung cancer strain NCI-H441;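 note: cell proliferation inhibition after four days measured by CellTiter-Glo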
[4] = biological target: GDP-bound KRAS wild-type protein (Homo sapiens, UniProt P01116); test: Binding to KRAS by surface plasmon resonance (SPR), Single Cycle Kinetics; conditions: GDP-bound KRAS wild-type protein, read-out: KRAS KD
[5] = SPR, GDP-bound NRAS wild-type protein vs GDP-bound KRAS wild-type protein, KD ratio class
[6] = SPR, GDP-bound HRAS wild-type protein vs GDP-bound KRAS wild-type protein, KD ratio class
[7] = SPR, Single Cycle Kinetics, 1:1 binding model
[8] = SPR, GDP-bound NRAS wild-type protein vs GDP-bound KRAS wild-type protein
[9] = SPR, GDP-bound HRAS wild-type protein vs GDP-bound KRAS wild-type protein
[10] = SPR Single Cycle Kinetics, 1:1 binding model

Chain of GDP-bound HRAS wild-type protein (P01112 whole entry): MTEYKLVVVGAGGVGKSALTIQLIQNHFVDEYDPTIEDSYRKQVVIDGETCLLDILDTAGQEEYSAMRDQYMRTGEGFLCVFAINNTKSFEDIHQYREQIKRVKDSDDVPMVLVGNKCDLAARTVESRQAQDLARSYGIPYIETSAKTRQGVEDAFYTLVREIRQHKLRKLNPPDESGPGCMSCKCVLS
Chain of GDP-bound KRAS wild-type protein (P01116 whole entry): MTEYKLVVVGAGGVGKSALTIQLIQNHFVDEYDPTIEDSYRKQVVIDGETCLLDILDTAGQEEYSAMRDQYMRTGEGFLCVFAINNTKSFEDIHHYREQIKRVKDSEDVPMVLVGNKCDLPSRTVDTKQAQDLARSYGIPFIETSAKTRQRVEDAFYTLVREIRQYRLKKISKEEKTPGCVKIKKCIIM
Chain of GDP-bound NRAS wild-type protein (P01111 whole entry): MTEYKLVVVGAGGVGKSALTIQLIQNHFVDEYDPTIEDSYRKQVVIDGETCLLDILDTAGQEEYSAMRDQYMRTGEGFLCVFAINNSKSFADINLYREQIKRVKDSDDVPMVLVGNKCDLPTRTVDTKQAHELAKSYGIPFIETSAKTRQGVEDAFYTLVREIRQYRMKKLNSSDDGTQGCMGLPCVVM

Row | SMILES | IC50 [3] [nM] | Kd [4, 7] [nM] | Kd ([4]; SPR, Single Cycle Kinetics) [nM] | NRAS/KRAS (ratio of KD value for NRAS to KD value for KRAS) [1, 5] | HRAS/KRAS (ratio of KD value for HRAS to KD value for KRAS) [2, 6] | NRAS/KRAS (ratio of KD value for NRAS to KD value for KRAS) [1, 8] | HRAS/KRAS (ratio of KD value for HRAS to KD value for KRAS) [2, 9] | further results
1 | CCO[C@@H]1C[C@H]2C(=O)NC3(CCC3)C(=O)N(C)[C@@H](C3CCCC3)C(=O)N(C)[C@H](C(=O)N3CCOCC3)CC(=O)N(C)[C@@H](COC)C(=O)N[C@@H]([C@@H](C)CC)C(=O)N(C)CC(=O)N(C)[C@H]3CCCCCN(C3=O)[C@@H](Cc3ccc(F)cc3)C(=O)N(C)CC(=O)N[C@@H](CCc3cc(F)c(C(F)(F)F)c(F)c3)C(=O)N2C1 [PP1179] | 56.9 |  | 0.091 |  |  | B (a compound having 3 or more and less than 10 is denoted as B) | B (a compound having 3 or more and less than 10 is denoted as B) | 
2 | CCO[C@@H]1C[C@H]2C(=O)NC3(CCC3)C(=O)N(C)[C@@H](C3CCCC3)C(=O)N(C)[C@H](C(=O)N(C)C)CC(=O)N(C)[C@@H](CC3CCCC3)C(=O)N[C@@H]([C@@H](C)CC)C(=O)N(C)CC(=O)N(C)[C@H]3C/C=C\CCN(C3=O)[C@@H](Cc3ccc(C(F)(F)F)cc3)C(=O)N(C)CC(=O)N[C@@H](CCc3ccc4sccc4c3)C(=O)N2C1 [PP1261] | 76.8 | 0.44 |  | A (a compound having 10 or more and less than 20 is denoted as A) | A (a compound having 10 or more and less than 20 is denoted as A) |  |  | 
3 | CCO[C@@H]1C[C@H]2C(=O)NC3(CCC3)C(=O)N(C)[C@@H](C(CC)CC)C(=O)N(C)[C@H](C(=O)N(C)C)CC(=O)N(C)[C@@H](CC(C)C)C(=O)N[C@@H]([C@@H](C)CC)C(=O)N(C)CC(=O)N(C)[C@H]3C/C=C\CCN(C3=O)[C@@H](Cc3ccc(C(F)(F)F)cc3)C(=O)N(C)CC(=O)N[C@@H](CCc3ccc(Cl)c(Cl)c3)C(=O)N2C1 [PP1217] | 17.8 | 0.48 |  | AA (a compound having 20 or more is denoted as AA) | A (a compound having 10 or more and less than 20 is denoted as A) |  |  | 
4 | CCO[C@@H]1C[C@H]2C(=O)NC3(CCC3)C(=O)N(C)[C@@H](C3CCCC3)C(=O)N(C)[C@H](C(=O)N(C)C)CC(=O)N(C)[C@@H](CC3CCCC3)C(=O)N[C@@H]([C@@H](C)CC)C(=O)N(C)CC(=O)N(C)[C@H]3C/C=C\CCN(C3=O)[C@@H](Cc3ccc(C)cc3)C(=O)N(C)CC(=O)N[C@@H](CCc3cc(F)c(Cl)c(F)c3)C(=O)N2C1 [PP1486] | 15 | 0.46 |  | A (a compound having 10 or more and less than 20 is denoted as A) | A (a compound having 10 or more and less than 20 is denoted as A) |  |  | 
5 | CCO[C@@H]1C[C@H]2C(=O)NC3(CCCC3)C(=O)N(C)[C@@H](C3CCCC3)C(=O)N(C)[C@H](C(=O)N3CCOCC3)CC(=O)N(C)[C@@H](CC)C(=O)N[C@@H]([C@@H](C)CC)C(=O)N(C)CC(=O)N(C)[C@H]3C[C@@H](C)[C@@H](C)CN(C3=O)[C@@H](Cc3ccc(C(F)(F)F)cc3)C(=O)N(C)CC(=O)N[C@@H](CCc3cc(F)c(C(F)(F)F)c(F)c3)C(=O)N2C1 [PP1353] | 3.7 | 0.1 |  | A (a compound having 10 or more and less than 20 is denoted as A) | B (a compound having 3 or more and less than 10 is denoted as B) |  |  | 
6 | CCCOC[C@H]1C(=O)N[C@@H]([C@@H](C)CC)C(=O)N(C)CC(=O)N(C)[C@H]2C/C=C\CCN(C2=O)[C@@H](CC2CCC(F)(F)CC2)C(=O)N(C)CC(=O)N[C@@H](CCc2ccc(C(F)(F)F)c(OC)c2)C(=O)N2C[C@H](OCC)C[C@H]2C(=O)NC2(CC(C)(C)C2)C(=O)N(C)[C@@H](C(CC)CC)C(=O)N(C)[C@H](C(=O)N(C)C)CC(=O)N1C [PP2464] | 66 |  | 0.98 |  |  | A (a compound having 10 or more and less than 20 is denoted as A) | A (a compound having 10 or more and less than 20 is denoted as A) | 
7 | CCO[C@@H]1C[C@H]2C(=O)NC3(CCC3)C(=O)N(C)[C@@H](C3CCCC3)C(=O)N(C)[C@H](C(=O)N(C)C)CC(=O)N(C)[C@@H](Cc3ccc(F)c(F)c3)C(=O)N[C@@H]([C@@H](C)CC)C(=O)N(C)CC(=O)N(C)[C@H]3CCCCCN(C3=O)[C@@H](Cc3ccc(C(F)(F)F)cc3)C(=O)N(C)CC(=O)N[C@@H](CCc3cc(F)c(C(F)(F)F)c(F)c3)C(=O)N2C1 [PP0937] | 39 |  | 1 |  |  | B (a compound having 3 or more and less than 10 is denoted as B) | B (a compound having 3 or more and less than 10 is denoted as B) | 

Continued by falling IC50 [3], values first:

Row | IC50 [3] [nM] | Kd [4, 7] [nM] | Kd ([4]; SPR, Single Cycle Kinetics) [nM] | SMILES | NRAS/KRAS (ratio of KD value for NRAS to KD value for KRAS) [1, 5] | HRAS/KRAS (ratio of KD value for HRAS to KD value for KRAS) [2, 6] | NRAS/KRAS (ratio of KD value for NRAS to KD value for KRAS) [1, 8] | HRAS/KRAS (ratio of KD value for HRAS to KD value for KRAS) [2, 9] | further results
8 | 506 |  |  | CCC[C@H]1C(=O)N[C@@H](CC(C)C)C(=O)N2C[C@@H](OC)C[C@H]2C(=O)N(C)[C@H]2C/C=C\CCN(C2=O)[C@@H](Cc2ccc(C)cc2)C(=O)N(C)CC(=O)N[C@@H](CCc2ccc(C(F)(F)F)c(Cl)c2)C(=O)N2C[C@H](OCC)C[C@H]2C(=O)NC2(CCC2)C(=O)N(C)[C@@H](C2CCCC2)C(=O)N(C)[C@H](C(=O)N(C)C)CC(=O)N1C [PP2549] |  |  |  |  | NRAS/KRAS (ratio of KD value with respect to GDP-bound NRAS wild-type protein to KD value with respect to KRAS) [1]: A (a compound having 10 or more and less than 20 is denoted as A); HRAS/KRAS (ratio of KD value with respect to GDP-bound HRAS wild-type protein to KD value with respect to KRAS) [2]: B (a compound having 3 or more and less than 10 is denoted as B); Kd [4, 10]: 6 nM
9 | 44.5 | 0.13 |  | CCO[C@@H]1C[C@H]2C(=O)NC3(CCC3)C(=O)N(C)[C@@H](C3CCCC3)C(=O)N(C)[C@H](C(=O)N(C)C)CC(=O)N(C)[C@@H](CSC)C(=O)N[C@@H]([C@@H](C)CC)C(=O)N(C)CC(=O)N(C)[C@H]3C/C=C\CCN(C3=O)[C@@H](CC3CCCCC3)C(=O)N(C)CC(=O)N[C@@H](CCc3cc(F)c(C(F)(F)F)c(F)c3)C(=O)N2C1 [PP1463, (2S,8S,12R,14S,20S,23S,27R,30S,36S,38Z)-2-(cyclohexylmethyl)-20-cyclopentyl-8-[2-[3,5-difluoro-4-(trifluoromethyl)phenyl]ethyl]-12-ethoxy-N,N,4,19,22,26,32,35-octamethyl-30-[(1S)-1-methylpropyl]-27-(methylsulfanylmethyl)-3,6,9,15,18,21,25,28,31,34,42-undecaoxo-spiro[1,4,7,10,16,19,22,26,29,32,35-undecazatricyclo[34.5.1.0^10,14]dotetracont-38-ene-17,1′-cyclobutane]-23-carboxamide] | A (a compound having 10 or more and less than 20 is denoted as A) | A (a compound having 10 or more and less than 20 is denoted as A) |  |  | 
10 | 14.3 |  |  | CC[C@H](C)[C@@H]1NC(=O)[C@H](COC)N(C)C(=O)C[C@@H](C(=O)N(C)C)N(C)C(=O)[C@H](C2CCCCC2)N(C)C(=O)C2(CC(C)(C)C2)NC(=O)[C@@H]2C[C@@H](OC(C)C)CN2C(=O)[C@H](CCc2cc(F)c(C(F)(F)F)c(F)c2)NC(=O)CN(C)C(=O)[C@H](Cc2ccc(C)cc2)N2CC/C=C\C[C@@H](C2=O)N(C)C(=O)CN(C)C1=O [PP2660] |  |  |  |  | NRAS/KRAS (ratio of KD value with respect to GDP-bound NRAS wild-type protein to KD value with respect to KRAS) [1]: A (a compound having 10 or more and less than 20 is denoted as A); HRAS/KRAS (ratio of KD value with respect to GDP-bound HRAS wild-type protein to KD value with respect to KRAS) [2]: A (a compound having 10 or more and less than 20 is denoted as A); Kd [4, 10]: 0.18 nM
11 | 7.1 |  |  | CCCN1C(=O)CN(C)C(=O)CN(CC)C(=O)[C@H]([C@@H](C)CC)NC(=O)[C@H](CC(C)C)N(C)C(=O)C[C@@H](C(=O)N(C)C)N(C)C(=O)[C@H](C2CCCC2)N(C)C(=O)C2(CCCC2)NC(=O)[C@@H]2CCCN2C(=O)[C@H](CCc2ccc(C(F)(F)F)c(Cl)c2)NC(=O)CN(C)C(=O)[C@@H]1Cc1ccc(C(F)(F)F)cc1 [PP0423] ([NMeL]I[NEtG][Sar][NPrPhe(4-CF3)][Sar][hPhe(3-Cl-4-CF3)]P[Ac5c][NMeGly(cPent)][NMeD]-NMe2; lactam N-11) |  |  |  |  | NRAS/KRAS (ratio of KD value with respect to NRAS to KD value with respect to KRAS) [1, 8]: B (a compound having 3 or more and less than 10 is denoted as B); HRAS/KRAS (ratio of KD value with respect to HRAS to KD value with respect to KRAS) [2, 9]: C (A compound having a KD ratio of 0.1 or more and less than 3 is denoted as C); Kd [4, 10]: 0.18 nM
12 | 3.7 | 0.037 |  | CCO[C@@H]1C[C@H]2C(=O)NC3(CCCC3)C(=O)N(C)[C@@H](C3CCCC3)C(=O)N(C)[C@H](C(=O)N(C)C)CC(=O)N(C)[C@@H](CC3CC3)C(=O)N[C@@H]([C@@H](C)CC)C(=O)N(C)CC(=O)N(C)[C@H]3C[C@@H](C)[C@@H](C)CN(C3=O)[C@@H](Cc3ccc(C(F)(F)F)cc3)C(=O)N(C)CC(=O)N[C@@H](CCc3ccc(C(F)(F)F)c(Cl)c3)C(=O)N2C1 [PP1362] | A (a compound having 10 or more and less than 20 is denoted as A) | B (a compound having 3 or more and less than 10 is denoted as B) |  |  | 
13 | 2.9 |  | 0.16 | CCC[C@H]1C(=O)N[C@@H]([C@@H](C)CC)C(=O)N(C2CC2)CC(=O)N(C)[C@H]2C/C=C\CCN(C2=O)[C@@H](Cc2ccc(C(F)(F)F)cc2)C(=O)N(C)CC(=O)N[C@@H](CCc2ccc(C(F)(F)F)c(OC)c2)C(=O)N2C[C@@H](C)C[C@H]2C(=O)N(C)C2(CCC2)C(=O)N(C)[C@@H](C2CCCC2)C(=O)N(C)[C@H](C(=O)N(C)C)CC(=O)N1C [PP2360] |  |  | A (a compound having 10 or more and less than 20 is denoted as A) | B (a compound having 3 or more and less than 10 is denoted as B) | 
